Data as given in patent publication US12358921B2, “Antiviral heterocyclic compounds” (priority 2022, dated 2025).

Assays:
HRSV = conditions: prophylactic use, high risk infants; cited from earlier work
[1] = tested on: HUMAN RSV-A (“LONG” STRAIN); experiment: RSV-A assay (CPE, ATPlite) in Hep-2 cells; assay type: cell-based; conditions: human respiratory syncytial virus, 120 h, MOI 0.1, 5-day incubation
Method in brief: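 Protection from RSV cytopathic effect read by ATP luminescence (ATPlite) after 5-day culture. Genotype A "Long" virus added at MOI 0.1 to Hep-2 monolayers at 8,000 cells/well, pre-dosed with duplicate 2-fold compound dilutions; controls include infected untreated and uninfected wells. EC50 values binned into ranges.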

hMPV A2 TN/94-49 [2] = experiment: HMPV antiviral assay Method 1 (LLC-MK2 cells, ATP-Lite); assay type: cell-based; conditions: hMPV A2 TN/94-49, LLC-MK2 cells
Method in brief: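 LLC-MK2 cells infected in suspension with hMPV A2 TN/94-49 at MOI 0.005, 5,000 cells/well, in serum-free OptiMEM with 2 μg/mL TPCK-trypsin (final) and CaCl2; compounds in duplicate, 10 points, 2 μM top, 2.5-fold dilutions. After 7 days at 37 °C, cell health by ATP-Lite luminescence; EC50 by four-parameter fit.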

hMPV A2 TN/94-49 [3] = experiment: HMPV antiviral assay Method 2 (LLC-MK2 cells with CP-100-356, ATP-Lite); assay type: cell-based; conditions: hMPV A2 TN/94-49, LLC-MK2 cells, 4 μM CP-100-356, Method 2
Method in brief: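 The protective effect was measured after 7 days at 37 °C by ATP-Lite luminescence and expressed as % cell health relative to virus-only and cells-only wells, with EC50 from a four-parameter logistic. Cells were LLC-MK2 infected with strain A2 TN/94-49 (MOI 0.16) with final 2 μM CP-100-356 and 2 μg/mL TPCK-trypsin; 10 duplicate concentrations from 200 nM, 2.5-fold steps.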

Molecule	EC50 [1] [nM]	EC50 (hMPV A2 TN/94-49 [2]) [nM]	EC50 (hMPV A2 TN/94-49 [3]) [nM]	effective in reducing hospitalizations (HRSV) [%]
Palivizumab				60
COc1cc(C(=O)NC[C@@](O)(c2cccc(F)c2)c2cc3c(c(-c4cccc(Cl)c4Cl)n2)OC[C@]3(C)C(N)=O)cc2oc(C)nc12 [Example 293]	< 200	< 500	< 200	
COc1cc(C(=O)NC[C@@](O)(c2ccccc2)c2cc3c(c(-c4ccc(F)c(Cl)c4Cl)n2)OC[C@]3(C)C(N)=O)cc2cc(Cl)cnc12 [Example 294]	< 200	< 500	< 200	
COc1cc(C(=O)NC[C@@](O)(c2ccc(F)cc2)c2cc3c(c(-c4ccc5c(c4Cl)OC(F)(F)O5)n2)OC[C@]3(C)C(N)=O)cc2cn(C3(F)CC3)nc12 [Example 263]	< 200	< 500	< 200	
C[C@]1(C(N)=O)COc2c1cc([C@@](O)(CNC(=O)c1cc(OC3CC3)c3nn(C(F)F)cc3c1)c1ccc(F)cc1)nc2-c1ccc2c(c1Cl)OC(F)(F)O2 [Example 265]	< 200	< 500	< 200	

Now from value to molecule, other results behind:

EC50 [1] [nM]	EC50 (hMPV A2 TN/94-49 [2]) [nM]	EC50 (hMPV A2 TN/94-49 [3]) [nM]	Molecule	effective in reducing hospitalizations (HRSV) [%]
< 200	> 500	< 200	COc1cc(C(=O)NC[C@](O)(c2cc3c(c(-c4cc(F)c(F)cc4C)n2)OC[C@]3(C)C(N)=O)C2CC2)cc2cn(C3CC3)nc12 [Example 50]	
< 200	< 500	< 200	COc1cc(C(=O)NC[C@@](O)(c2ccccc2)c2cc3c(c(-c4ccc(F)c(Cl)c4Cl)n2)OC[C@]3(C)C(N)=O)cc2oc(C3CC3)nc12 [Example 278]	
< 200	< 500	< 200	COc1cc(C(=O)NC[C@](O)(c2cc3c(c(-c4cc(Cl)c(F)cc4F)n2)OC[C@]3(C)C(N)=O)c2nccs2)cc2cn(C3CC3)nc12 [Example 475]	
< 200	< 500	< 200	COc1cc(C(=O)NC[C@@](O)(c2ccccc2)c2cc3c(c(-c4cc(Cl)c(F)cc4F)n2)OC[C@]3(C)C(N)=O)cc2cc(C)nnc12 [Example 89]	
< 200	< 500	< 200	COc1cc(C(=O)NC[C@@](O)(c2cccc(F)c2)c2cc3c(c(-c4cc(Cl)c(F)cc4F)n2)OC[C@]3(C)C(N)=O)cc2cc(C3CC3)nn12 [Example 133]	
< 200	< 500	< 200	COc1cc(C(=O)NC[C@@](O)(c2cccc(F)c2)c2cc3c(c(-c4cc(C(F)(F)F)c(F)cc4F)n2)OC[C@]3(C)C(N)=O)cc2cn(C3CC3)nc12 [Example 295]	
< 200	< 500	< 200	C[C@]1(C(N)=O)COc2c1cc([C@@](O)(CNC(=O)c1cc(OC3CC3)c3nc(C4CC4)sc3c1)C1CC1)nc2-c1cc(Cl)c(F)cc1F [Example 3]	
< 200	< 500	< 200	Cc1cnc2c(OC(F)F)cc(C(=O)NC[C@@](O)(c3ccccc3)c3cc4c(c(-c5cc(Cl)c(F)cc5F)n3)OC[C@]4(C)C(N)=O)cc2c1 [Example 183]	
